Reference: US7166634B2, “Bis-indole pyrroles useful as antimicrobials agents” (Nereus Pharmaceuticals, Inc., priority 2004, dated 2007)
≈ marks a conversion by molar mass, not a printed value. Where “and” joins values, the source holds several entries; their conditions need not be identical. Equal values may be shown once.

Key:
Assay in all cases: MIC, broth microdilution (NCCLS M7-A5)
Assay type in all cases: cell-based
[1] = test system: S. epidermidis - ATCC 700578; parameters: Staph Epi 700578 MIC: unit not given here; details: for Staph Epi 700578 MIC: Table 4, averages of 2 experiments, * single experiment, both values given when differing >2 fold; for MIC: S. epidermidis - ATCC 700578, Table 3
Experimental: (§1) Minimum inhibitory concentrations (MICs) are determined according to the National Committee for Clinical Laboratory Standards (NCCLS) susceptibility test guideline M7-A5 (Ferraro, M. 2001 Methods for Dilution Antimicrobial Susceptibility Tests for Bacteria that Grow Aerobically; Approved Standard (NCCLS). National Committee for Clinical Laboratory Standards (NCCLS), Villanova) to quantify the antimicrobial activity of the compounds of the present embodiment against various pathogenic bacteria. Susceptibility testing is performed by broth microdilution in accordance with National Committee for Clinical Laboratory Standards (NCCLS) guidelines. This procedure entails combining the test compounds with a standardized number of cells, incubating at the temperature and amount of time appropriate for each particular organism, and visually scoring the concentration at which no growth was apparent in the test wells. The panel includes both drug sensitive and drug resistant isolates of both gram-positive and gram-negative bacteria, including: S. aureus (both MSSA and MRSA), S. pneumoniae (wild type and penicillin-resistant), vancomycin-sensitive E. faecalis, vancomycin-resistant E. faecium, E. coli, H. influenzae and P. aeruginosa.
(§2) Susceptibility testing was performed by broth microdilution in accordance with National Committee for Clinical Laboratory Standards (NCCLS) guidelines. Antimicrobial data for compounds of Formulae II, III, IV, VI, VII, VIII, IX, XII, XIII, XIV, XV′, XV, XVI, XVII, XVIII, XXI′, XXII, XXIII, XXIV, and XXV are shown in Tables 3, 4 and 5.

[2] = test system: S. epidermidis - ATCC 700582; parameters: Staph Epi 700582 MIC: unit not given here; details: for Staph Epi 700582 MIC: Table 4, averages of 2 experiments, * single experiment, both values given when differing >2 fold; for MIC: S. epidermidis - ATCC 700582, Table 3
Experimental: as §1, §2

[3] = test system: E. coli - imp; details: for E. coli imp MIC: Table 5; for MIC: E. coli - imp, Table 3
Experimental: as §1, §2

[4] = test system: E. faecium - Van^r (VRE 700221); details: for VRE 700221 MIC: Table 4, averages of 2 experiments, * single experiment, both values given when differing >2 fold; for MIC: E. faecium - Van^r, Table 3
Experimental: as §1, §2

[5] = test system: H. influenzae - ATCC 49247; details: for H. inf. 49247: Table 4 (MIC), averages of 2 experiments, * single experiment, both values given when differing >2 fold; for MIC: H. influenzae - ATCC 49247, Table 3
Experimental: as §1, §2

[6] = test system: H. influenzae - ATCC 49766; details: for H. inf. 49766: Table 4 (MIC), averages of 2 experiments, * single experiment, both values given when differing >2 fold; for MIC: H. influenzae - ATCC 49766, Table 3
Experimental: as §1, §2

[7] = test system: S. aureus - MRSA (43300); details: for MRSA 43300 MIC: Table 4, averages of 2 experiments, * single experiment, both values given when differing >2 fold, in µg/mL; for MIC: S. aureus - MRSA, Table 3
Experimental: as §1, §2

[8] = test system: S. aureus - MSSA (29213); details: for MSSA 29213 MIC: Table 4, averages of 2 experiments, * single experiment, both values given when differing >2 fold, in µg/mL; for MIC: S. aureus - MSSA, Table 3
Experimental: as §1, §2

[9] = test system: S. pneumoniae - penicillin resistant (51915); details: for S. pneumo 51915 Pen R MIC: Table 4, averages of 2 experiments, * single experiment, both values given when differing >2 fold; for MIC: S. pneumoniae - penicillin resistant, Table 3
Experimental: as §1, §2

[10] = test system: S. pneumoniae - penicillin sensitive (49619); details: for S. pneumo 49619 Pen. S MIC: Table 4, averages of 2 experiments, * single experiment, both values given when differing >2 fold; for MIC: S. pneumoniae - penicillin sensitive, Table 3
Experimental: as §1, §2

[11] = test system: E. faecalis - Van^s (VSE 29212); parameters: VSE 29212 MIC: unit not given here; details: for VSE 29212 MIC: Table 4, averages of 2 experiments, * single experiment, both values given when differing >2 fold; for MIC: E. faecalis - Van^s, Table 3
Experimental: as §1, §2

[12] = test system: E. coli - ATCC 25922; details: Table 3
Experimental: as §1, §2

| SMILES | Staph Epi 700578 MIC [1] | Staph Epi 700582 MIC [2] | E. coli imp MIC [3] | VRE 700221 MIC ([4]; in µg/mL) | H. inf. 49247 [5] | H. inf. 49766 [6] | MRSA 43300 MIC [7] | MSSA 29213 MIC [8] | S. pneumo 51915 Pen R MIC ([9]; in µg/mL) | S. pneumo 49619 Pen. S MIC ([10]; in µg/mL) | VSE 29212 MIC [11] | also measured |
| --- | --- | --- | --- | --- | --- | --- | --- | --- | --- | --- | --- | --- |
| COC(=O)c1[nH]cc(-c2c[nH]c3ccc(Br)cc23)c1-c1c[nH]c2ccc(Br)cc12 [XVI] | 2.5 | 2.5 | >32, 32 ug/mL | 6 | >32 | 16 and > 32 | 2.5 | 1.4 | 24 | 20 | 5 |  |
| O=C(O)c1[nH]c(C(=O)O)c(-c2c[nH]c3ccc(Cl)cc23)c1-c1c[nH]c2ccc(Cl)cc12 [VIII] | >16 | >16 | >16 µg/mL | >16 | >16 | >16 | >16 | >16 | >16 | >16 | >16 |  |
| COC(=O)c1[nH]c(C(=O)OC)c(-c2c[nH]c3ccc(F)cc23)c1-c1c[nH]c2ccccc12 [XXIII] | >32* | 16* | >32 µg/mL | >32* | >32* | >32* | >32* | 16* | >32* | >32* | >32* |  |
| COC(=O)c1[nH]cc(-c2c[nH]c3cc(Cl)c(F)cc23)c1-c1c[nH]c2ccc(F)cc12 [XXIV] | 2* | 2* | 8 µg/mL | 8* | 16* | 16* | 1.5* | 1* | 16* | 23* | 4* |  |
| COC(=O)c1[nH]cc(-c2c[nH]c3cc(Cl)c(Cl)cc23)c1-c1c[nH]c2ccc(Cl)cc12 [II] |  |  |  |  |  |  |  |  |  |  |  | MIC [1]: 1 µg/mL (≈ 2.18 µM); MIC [2]: 1 µg/mL (≈ 2.18 µM); MIC [12]: >32 µg/mL; MIC [3]: 6 µg/mL (≈ 13.1 µM); MIC [4]: 2 µg/mL (≈ 4.36 µM); MIC [5]: 2 µg/mL (≈ 4.36 µM); MIC [6]: 6 µg/mL (≈ 13.1 µM); MIC [7]: 1 µg/mL (≈ 2.18 µM); MIC [8]: 0.8 µg/mL (≈ 1.74 µM); MIC [9]: 8 µg/mL (≈ 17.4 µM); MIC [10]: 8 µg/mL (≈ 17.4 µM); MIC [11]: 1.5 µg/mL (≈ 3.27 µM) |
| Clc1cc2[nH]cc(-c3c[nH]cc3-c3c[nH]c4cc(Cl)c(Cl)cc34)c2cc1Cl [IV] |  |  |  |  |  |  |  |  |  |  |  | MIC [1]: 1 µg/mL (≈ 2.3 µM); MIC [2]: 1 µg/mL (≈ 2.3 µM); MIC [12]: >32 µg/mL; MIC [3]: 6 µg/mL (≈ 13.8 µM); MIC [4]: 2 µg/mL (≈ 4.6 µM); MIC [5]: 4 µg/mL (≈ 9.19 µM); MIC [6]: 6 µg/mL (≈ 13.8 µM); MIC [7]: 1.5 µg/mL (≈ 3.45 µM); MIC [8]: 1.1 µg/mL (≈ 2.53 µM); MIC [9]: 20 µg/mL (≈ 46 µM); MIC [10]: 20 µg/mL (≈ 46 µM); MIC [11]: 2.5 µg/mL (≈ 5.75 µM) |
| O=C(O)c1[nH]cc(-c2c[nH]c3cc(Cl)c(Cl)cc23)c1-c1c[nH]c2ccc(Cl)cc12 [XII] | 3 | 6 | 20 µg/mL | 8 | 8 | 10 | 6 | 4 | >32 | >32 | 8 |  |
| COC(=O)c1[nH]c(C(=O)OC)c(-c2c[nH]c3ccc(Cl)cc23)c1-c1c[nH]c2ccc(F)cc12 [XX] | 8 | 8 | >32 µg/mL | >32 |  | >32 | 5 | 4 |  | 32 | 24 | S. pneumo 51915 Pen R MIC [9]: >32, 32 |
| COC(=O)c1[nH]c(C(=O)OC)c(-c2c[nH]c3ccc(F)cc23)c1-c1c[nH]c2ccc(F)cc12 [XVIII] | 16* | 16* | >32 µg/mL | >32* | >32* | >32* | 12* | 8* | >32* | >32* | >32* |  |
| COC(=O)c1[nH]cc(-c2c[nH]c3cc(F)c(Cl)cc23)c1-c1c[nH]c2ccc(Cl)cc12 [XVII] | 1* | 1* | 8 µg/mL | 4* | >32* | 16* | 1* | 1* | 24* | 16* | 4* |  |
| COC(=O)c1[nH]c(C(=O)OC)c(-c2c[nH]c3cc(F)ccc23)c1-c1c[nH]c2ccccc12 [XXV] | 8* | 8* | >32 µg/mL | >32* | 8* | 16* | 8* | 4* | >32* | 32* | >32* |  |
| COC(=O)c1[nH]c(C(=O)OC)c(-c2c[nH]c3ncccc23)c1-c1c[nH]c2ccc(Cl)cc12 [XIII] | 8* | 8* | >32 µg/mL | 32* | >32* | >32* | 4* | 3* | >32* | >32* | 16* |  |
| COC(=O)c1[nH]c(C(=O)OC)c(-c2c[nH]c3ccc(Cl)cc23)c1-c1c[nH]c2ccc(Cl)cc12 [VI] |  |  |  |  |  |  |  |  |  |  |  | MIC [1]: 4 µg/mL (≈ 8.29 µM); MIC [2]: 4 µg/mL (≈ 8.29 µM); MIC [12]: >32 µg/mL; MIC [3]: >32 µg/mL; MIC [4]: 8 µg/mL (≈ 16.6 µM); MIC [5]: 5 µg/mL (≈ 10.4 µM); MIC [6]: 8 µg/mL (≈ 16.6 µM); MIC [7]: 3 µg/mL (≈ 6.22 µM); MIC [8]: 3 µg/mL (≈ 6.22 µM); MIC [9]: 20 µg/mL (≈ 41.5 µM); MIC [10]: 24 µg/mL (≈ 49.8 µM); MIC [11]: 8 µg/mL (≈ 16.6 µM) |
| COC(=O)c1[nH]c(C(=O)OC)c(-c2c[nH]c3ccccc23)c1-c1c[nH]c2ccccc12 [IX] | 16 | 16 | >32 µg/mL | >32 | >32 | >32 | >32 | >32 | >32 |  | >32 | S. pneumo 49619 Pen. S MIC [10]: 32, >32 |
| O=C(O)c1[nH]cc(-c2c[nH]c3ccc(Cl)cc23)c1-c1c[nH]c2ccc(Cl)cc12 [VII] | 16* | 16* | >32 µg/mL | >32* | >32* | >32* | 16* | 12* | >32* | >32* | >32* |  |
| COC(=O)c1[nH]cc(-c2c[nH]c3cc(Cl)c(Cl)cc23)c1-c1c[nH]c2ncccc12 [XIV] | 8* | 8* |  | 6 | >32* | >32* | 6 | 6 | 24* | 32* | 12 |  |
| COC(=O)c1[nH]c(C(=O)OC)c(-c2c[nH]c3cc(F)c(Cl)cc23)c1-c1c[nH]c2ccc(Cl)cc12 [XXII] | 2.5 | 2 | >32 µg/mL |  |  | 4 | 1.5 | 1.25 | 32 | 32 | 6 | VRE 700221 MIC [4]: 16 and > 32 |
